Reference: PubChem BioAssay (NCI)
Several values for one entry are separate records, joined by “and”; a condition that tells them apart may be missing. Identical values can stand only once.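 How tested: cells in 96-well plates exposed to compound for 48 hours at five concentrations. At the GI50, growth is halved. TGI denotes the concentration required for complete inhibition of growth.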

Experiments:
Assay in all cases: NCI tumour cell line growth inhibition, 48 h
IGROV1 ovarian = test system: IGROV1 ovarian
NCI/ADR-RES ovarian = test system: NCI/ADR-RES ovarian
NCI-H226 lung = test system: NCI-H226 lung
786-0 renal = test system: 786-0 renal
ACHN renal = test system: ACHN renal
SK-OV-3 ovarian = test system: SK-OV-3 ovarian
T-47D breast = test system: T-47D breast
HL-60(TB) leukemia = test system: HL-60(TB) leukemia
KM12 colon = test system: KM12 colon
M14 melanoma = test system: M14 melanoma
MCF7 breast = test system: MCF7 breast
UACC-62 melanoma = test system: UACC-62 melanoma
RXF 393 renal = test system: RXF 393 renal
DU-145 prostate = test system: DU-145 prostate
LOX IMVI melanoma = test system: LOX IMVI melanoma
SF-268 CNS = test system: SF-268 CNS
BT-549 breast = test system: BT-549 breast
NCI-H23 lung = test system: NCI-H23 lung
PC-3 prostate = test system: PC-3 prostate
MDA-MB-231 breast = test system: MDA-MB-231 breast
NCI-H522 lung = test system: NCI-H522 lung
SNB-19 CNS = test system: SNB-19 CNS
SK-MEL-5 melanoma = test system: SK-MEL-5 melanoma
NCI-H460 lung = test system: NCI-H460 lung
TK-10 renal = test system: TK-10 renal
SK-MEL-28 melanoma = test system: SK-MEL-28 melanoma
EKVX NSCLC = test system: EKVX NSCLC
SNB-75 CNS = test system: SNB-75 CNS
HS 578T breast = test system: HS 578T breast
MALME-3M melanoma = test system: MALME-3M melanoma
A549 NSCLC = test system: A549 NSCLC
HCT-15 colon = test system: HCT-15 colon
COLO 205 colon = test system: COLO 205 colon
SF-295 CNS = test system: SF-295 CNS
OVCAR-3 ovarian = test system: OVCAR-3 ovarian
MOLT-4 leukemia = test system: MOLT-4 leukemia
OVCAR-8 ovarian = test system: OVCAR-8 ovarian
OVCAR-4 ovarian = test system: OVCAR-4 ovarian
SR leukemia = test system: SR leukemia
RPMI-8226 leukemia = test system: RPMI-8226 leukemia
K-562 leukemia = test system: K-562 leukemia
SK-MEL-2 melanoma = test system: SK-MEL-2 melanoma
OVCAR-5 ovarian = test system: OVCAR-5 ovarian
CCRF-CEM leukemia = test system: CCRF-CEM leukemia
MDA-MB-435 = test system: MDA-MB-435
HOP-62 NSCLC = test system: HOP-62 NSCLC
HT29 colon = test system: HT29 colon
SN12C renal = test system: SN12C renal
U251 CNS = test system: U251 CNS
SF-539 CNS = test system: SF-539 CNS
HCT-116 colon = test system: HCT-116 colon
UO-31 renal = test system: UO-31 renal
SW-620 colon = test system: SW-620 colon
HOP-92 NSCLC = test system: HOP-92 NSCLC
A498 renal = test system: A498 renal
UACC-257 melanoma = test system: UACC-257 melanoma
CAKI-1 renal = test system: CAKI-1 renal
HCC-2998 colon = test system: HCC-2998 colon

CCOC(=O)c1c(Br)c(-c2ccc(OC)cc2)c(Br)n1C
TGI (IGROV1 ovarian): > 100 µM | GI50 (NCI/ADR-RES ovarian): 23.7 µM | TGI (NCI/ADR-RES ovarian): 55.3 µM | TGI (NCI-H226 lung): 87.5 µM | TGI (786-0 renal): 73.4 µM | TGI (ACHN renal): > 100 µM | TGI (SK-OV-3 ovarian): > 100 µM | TGI (T-47D breast): 82.1 µM | TGI (HL-60(TB) leukemia): 14.1 µM | TGI (KM12 colon): 38.1 µM | TGI (M14 melanoma): > 100 µM | GI50 (MCF7 breast): 15.9 µM | TGI (MCF7 breast): 39.7 µM | GI50 (UACC-62 melanoma): 13 µM | TGI (UACC-62 melanoma): 47.6 µM | TGI (RXF 393 renal): 45 µM | TGI (DU-145 prostate): > 100 µM | GI50 (LOX IMVI melanoma): 17.5 µM | TGI (LOX IMVI melanoma): 41.6 µM | TGI (SF-268 CNS): > 100 µM | TGI (BT-549 breast): > 100 µM | TGI (NCI-H23 lung): > 100 µM | TGI (PC-3 prostate): > 100 µM | TGI (MDA-MB-231 breast): > 100 µM | TGI (NCI-H522 lung): 83.9 µM | TGI (SNB-19 CNS): 97.7 µM | TGI (SK-MEL-5 melanoma): 22.4 µM | TGI (NCI-H460 lung): > 100 µM | TGI (TK-10 renal): 94 µM | TGI (SK-MEL-28 melanoma): > 100 µM | TGI (EKVX NSCLC): 74.8 µM | GI50 (SNB-75 CNS): 63.4 µM | TGI (SNB-75 CNS): > 100 µM | TGI (HS 578T breast): 47.6 µM | GI50 (MALME-3M melanoma): 9.99 µM | TGI (MALME-3M melanoma): 44.4 µM | TGI (A549 NSCLC): 82.3 µM | TGI (HCT-15 colon): 64.2 µM | TGI (COLO 205 colon): > 100 µM | TGI (SF-295 CNS): 56.1 µM | TGI (OVCAR-3 ovarian): 67.7 µM | GI50 (MOLT-4 leukemia): 17.8 µM | TGI (MOLT-4 leukemia): > 100 µM | TGI (OVCAR-8 ovarian): > 100 µM | TGI (OVCAR-4 ovarian): > 100 µM | GI50 (SR leukemia): 13.3 µM | TGI (SR leukemia): 78.3 µM | TGI (RPMI-8226 leukemia): > 100 µM | GI50 (K-562 leukemia): 4.04 µM | TGI (K-562 leukemia): 38.3 µM | TGI (SK-MEL-2 melanoma): 39.1 µM | TGI (OVCAR-5 ovarian): > 100 µM | TGI (CCRF-CEM leukemia): 40.2 µM | GI50 (MDA-MB-435): 4.47 µM | TGI (MDA-MB-435): 7.71 µM and 29.3 µM | TGI (HOP-62 NSCLC): 39.7 µM | TGI (HT29 colon): 56.3 µM | TGI (SN12C renal): 49.2 µM | TGI (U251 CNS): > 100 µM | TGI (SF-539 CNS): 70.9 µM | GI50 (HCT-116 colon): 16 µM | TGI (HCT-116 colon): 62.6 µM | TGI (UO-31 renal): 89.2 µM | TGI (SW-620 colon): 38.2 µM | GI50 (HOP-92 NSCLC): 0.0721 µM | TGI (HOP-92 NSCLC): 14.1 µM | TGI (A498 renal): 49.6 µM | TGI (UACC-257 melanoma): 95.8 µM

Cn1nc(-c2ccc(Cl)cc2)nc2c(=O)n(C)c(=O)nc1-2
GI50 (IGROV1 ovarian): 0.842 µM | TGI (IGROV1 ovarian): 3.67 µM | GI50 (NCI/ADR-RES ovarian): 1.33 µM | TGI (NCI/ADR-RES ovarian): 4.47 µM | GI50 (NCI-H226 lung): 2.38 µM | TGI (NCI-H226 lung): 5.83 µM | GI50 (786-0 renal): 1.43 µM | TGI (786-0 renal): 9.65 µM | GI50 (ACHN renal): 1.13 µM | TGI (ACHN renal): 3.1 µM | GI50 (SK-OV-3 ovarian): 4.8 µM | TGI (SK-OV-3 ovarian): 17.7 µM | GI50 (T-47D breast): 1.12 µM | TGI (T-47D breast): 3.43 µM | GI50 (HL-60(TB) leukemia): 1.11 µM | TGI (HL-60(TB) leukemia): 3.69 µM | GI50 (KM12 colon): 1.35 µM | TGI (KM12 colon): 5.5 µM | GI50 (M14 melanoma): 0.75 µM | TGI (M14 melanoma): 1.41 µM | GI50 (MCF7 breast): 0.594 µM | TGI (MCF7 breast): 1.57 µM | GI50 (UACC-62 melanoma): 0.745 µM | TGI (UACC-62 melanoma): 1.68 µM | GI50 (RXF 393 renal): 0.781 µM | TGI (RXF 393 renal): 1.57 µM | GI50 (DU-145 prostate): 0.89 µM | TGI (DU-145 prostate): 1.63 µM | GI50 (LOX IMVI melanoma): 0.601 µM | TGI (LOX IMVI melanoma): 1.61 µM | GI50 (SF-268 CNS): 1.8 µM | TGI (SF-268 CNS): 6.58 µM | GI50 (BT-549 breast): 0.968 µM | TGI (BT-549 breast): 1.94 µM | GI50 (NCI-H23 lung): 1.18 µM | TGI (NCI-H23 lung): 3.16 µM | GI50 (PC-3 prostate): 1.19 µM | TGI (PC-3 prostate): 7.9 µM | GI50 (MDA-MB-231 breast): 1.28 µM | TGI (MDA-MB-231 breast): 7.34 µM | GI50 (NCI-H522 lung): 0.864 µM | TGI (NCI-H522 lung): 1.67 µM | GI50 (SNB-19 CNS): 3.03 µM | TGI (SNB-19 CNS): 6.73 µM | GI50 (SK-MEL-5 melanoma): 0.321 µM | TGI (SK-MEL-5 melanoma): 0.878 µM | GI50 (NCI-H460 lung): 1.21 µM | TGI (NCI-H460 lung): 4.94 µM | GI50 (TK-10 renal): 6.09 µM | TGI (TK-10 renal): 24.8 µM | GI50 (SK-MEL-28 melanoma): 1.24 µM | TGI (SK-MEL-28 melanoma): 3.13 µM | GI50 (CAKI-1 renal): 1.87 µM | TGI (CAKI-1 renal): 6.61 µM | GI50 (EKVX NSCLC): 1.11 µM | TGI (EKVX NSCLC): 4.21 µM | GI50 (HCC-2998 colon): 1.18 µM | TGI (HCC-2998 colon): 3.83 µM | GI50 (SNB-75 CNS): 2.38 µM | TGI (SNB-75 CNS): 4.68 µM | GI50 (HS 578T breast): 1.35 µM | TGI (HS 578T breast): 3.51 µM | GI50 (MALME-3M melanoma): 0.382 µM | TGI (MALME-3M melanoma): 1.14 µM | GI50 (A549 NSCLC): 0.768 µM | TGI (A549 NSCLC): 1.73 µM | GI50 (HCT-15 colon): 0.766 µM | TGI (HCT-15 colon): 1.53 µM | GI50 (COLO 205 colon): 0.491 µM | TGI (COLO 205 colon): 1.93 µM | GI50 (SF-295 CNS): 0.777 µM | TGI (SF-295 CNS): 1.81 µM | GI50 (OVCAR-3 ovarian): 0.275 µM | TGI (OVCAR-3 ovarian): 1.2 µM | GI50 (MOLT-4 leukemia): 1.13 µM | TGI (MOLT-4 leukemia): 3.22 µM | GI50 (OVCAR-8 ovarian): 0.976 µM | TGI (OVCAR-8 ovarian): 3.51 µM | GI50 (OVCAR-4 ovarian): 1.2 µM | TGI (OVCAR-4 ovarian): 3.3 µM | GI50 (RPMI-8226 leukemia): 0.886 µM | TGI (RPMI-8226 leukemia): 2.23 µM | GI50 (K-562 leukemia): 1.17 µM | TGI (K-562 leukemia): 3.22 µM | GI50 (SK-MEL-2 melanoma): 1.5 µM | TGI (SK-MEL-2 melanoma): 9.29 µM | GI50 (OVCAR-5 ovarian): 0.949 µM | TGI (OVCAR-5 ovarian): 1.77 µM | GI50 (CCRF-CEM leukemia): 1.49 µM | TGI (CCRF-CEM leukemia): 50 µM | GI50 (MDA-MB-435): 0.137 µM | TGI (MDA-MB-435): 0.405 µM | GI50 (HOP-62 NSCLC): 0.886 µM | TGI (HOP-62 NSCLC): 1.75 µM | GI50 (HT29 colon): 1.11 µM | TGI (HT29 colon): 11.3 µM | GI50 (SN12C renal): 0.706 µM | TGI (SN12C renal): 1.45 µM | GI50 (U251 CNS): 0.789 µM | TGI (U251 CNS): 2.62 µM | GI50 (SF-539 CNS): 1.08 µM | TGI (SF-539 CNS): 2.29 µM | GI50 (HCT-116 colon): 0.32 µM | TGI (HCT-116 colon): 1.44 µM | GI50 (UO-31 renal): 1.53 µM | TGI (UO-31 renal): 6.56 µM | GI50 (SW-620 colon): 1.4 µM | TGI (SW-620 colon): 6.46 µM | GI50 (HOP-92 NSCLC): 1.72 µM | TGI (HOP-92 NSCLC): 4.99 µM | GI50 (A498 renal): 0.949 µM | TGI (A498 renal): 2.24 µM | GI50 (UACC-257 melanoma): 0.794 µM | TGI (UACC-257 melanoma): 1.54 µM
